Data as given in patent publication US20250108064A1, “PHOSPHATE PRODRUGS OF CANNABINOIDS” (priority 2021, published 2025).

Key:
[1] = Liver microsome stability assay (HLM); assay type: in vitro ADME; details: human, microsomes, pH 7.4; 3 μM test compound, NADPH; read-out: T½ in HLM
Procedure: General Experimental: Human and mouse liver microsomes were purchased from Xenotech at 20 mg/mL. NADPH (Sigma-Aldrich) 10 mM stocks were prepared in deionized water.
Procedure for Liver Microsome Stability Assay: Test compounds and positive controls were dissolved in 100% DMSO to make 10 mM stock solutions. Verapamil (Sigma-Aldrich) and diphenhydramine (Sigma-Aldrich) were used as positive controls for both human liver microsomes (HLM) and mouse liver microsomes (MLM). The 10 mM stock solutions of test and control compounds were further diluted in potassium phosphate buffer (100 mM, pH 7.4) to 500 μM to ensure that the organic solvent content was <0.2%. The liver microsome (HLM or MLM) assay was prepared in a 1.5 mL Eppendorf tube with a final volume of 1100 μL for duplicate runs. Each reaction contained phosphate buffer (928.4 μL), liver microsomes (55 μL), and test compound (6.6 μL of 500 μM), resulting in a final concentration of 3 μM for the test compound. The reaction was initiated with 110 μL of 10 mM NADPH. Aliquots (100 μL) were removed in duplicate at 0, 5, 10, 15, and 30 min and quenched in […] of 100% cold methanol which contained internal standard (ISTD: d5-7-ethoxy coumarin 2 μM). The aliquots were centrifuged at 12,000 g for 5 min, and the supernatant was transferred and placed in an LC-MS vial. Each time point was assessed by LC-MS/MS, and the area under the m/z curve (AUC), based on the MRM transition, was integrated w.r.t the ISTD. Positive controls were conducted at a final volume of 550 μL to enable a single run for each time point. Negative controls in the absence of NADPH were performed with the test and control compounds, respectively, at a final volume of 150 μL and measured at the most prolonged time point. Control compounds were processed and analyzed like test compounds. Each time point was run in triplicates on LC-MS/MS followed by in-between blank washes to avoid the carryover and to equilibrate the column. Half-life (T1/2) was calculated using the data obtained from LC-MS/MS and by plotting ln (% remaining of the parent prodrug) versus time and performing linear regression to determine slope. Slope=−k and T1/2=0.693/k for first-order kinetics.

[2] = Plasma stability assay (human plasma); assay type: in vitro ADME; details: 37° C.; for half-life: read-out: T½ in human plasma (converted)
Procedure: General Experimental: Procaine and Procainamide were purchased from Sigma-Aldrich. Human plasma was obtained from BioIVT (Cat. No. […]2N) and 1X Dulbecco's PBS (pH 7.4, Gibco) was obtained from Thermos Fischer. Stock solutions were prepared in 100% DMSO, and suitable dilutions of target analytes were prepared in methanol for method development.
Procedure for Plasma Stability Assay: Test compounds were dissolved in DMSO to make a stock solution of 10 mM and then diluted to 500 μM in buffer (or 70% MeOH). Human plasma was thawed at ambient temperature and is aliquoted ([…]) to a 1.5 mL Eppendorf tube in duplicates (A and B) for each compound. Plasma was incubated at 37° C. for 10 minutes in an incubator shaker at 150 rpm; the reaction was initiated by the addition of the test compound (6.0 μL) and vortex mixing. The total reaction volume was 1000 μL where the final organic solvent concentrations were 0.6% MeOH and 0.03% DMSO. The spiked plasma samples were incubated at 37° C. for 4 hrs. The reactions were terminated at time points 0, 15, 30, 60, 120, 180, and 240 min by taking a 100 μL aliquot from the test incubation mixture and immediately quenching it in ice-cold acetonitrile containing internal standard (150 μL with 2 μM ISTD), followed by a quick vortex mixing. In addition, matrix blank was prepared by adding acetonitrile solutions containing ISTD to plasma samples without any of the analytes or control compounds. Also, an additional tube was made to measure compound degradation in PBS buffer. The samples were centrifuged at 15000 rpm for 25 min at 4° C. The supernatant was transferred to an LC-MS vial for analysis by LC/MS-MS. Each time point was run in duplicates followed by in-between blank washes to avoid the carryover and to equilibrate the column. Half-life (T1/2) was calculated using the data obtained from LC-MS/MS and by plotting ln (% remaining of the parent prodrug) versus time and performing linear regression to determine slope. Slope=−k and T1/2=0.693/k for first-order kinetics.
These positive controls were run in parallel to test the systems for competency.

[3] = physchem; assay type: physicochemical; details: aqueous buffer, kinetic from dmso stock, PBS pH 7.0-7.3, 1% DMSO, 25° C.; for solubility: nephelometry, 90 min
Procedure: General Experimental: Nephelometry experiments were performed using untreated Corning® Costar® 96-well black polystyrene plates with clear flat bottoms. Sample stock solutions and serial dilutions were prepared with DriSolv® DMSO purchased from MilliporeSigma. All 100-fold dilutions and replicate experiments were prepared using Gibco® Dulbecco's phosphate-buffered saline (DPBS, no calcium, no magnesium) with a pH range of 7.0-7.3 as aqueous media. […] Nephelometry data was obtained using a NEPHELOstar® microplate reader and processed with MARS data analysis software from BMG LabTech.
Procedure for Nephelometry Experiments: Tested compounds were dissolved in 100% DMSO to make stock solutions of specified concentrations, ranging from 10 mM minimum up to 50 mM maximum. The sample then underwent serial dilution in a 96-well plate (Corning® Costar®). Well A1 of the plate contained 100% DMSO. […] Using a 12 channel multichannel pipette, 2.5 μL of sample from row A was transferred to each well in row B through row H of the plate. Next, 30 μL of PBS (pH=7.0-7.3) was added to row B through row H, providing each well with 32.5 μL. The plate was then incubated for 30 sec with shaking. Finally, 217.5 μL of PBS buffer was added to row B through row H, and the entire plate was incubated with shaking at 25° C. for 90 min. Note: The final volume of DMSO in actual experiments with PBS buffer was 1% throughout the plate. After 90 min, the 96-well plate was analyzed with a NEPHELOstar® instrument and the data was processed with MARS data analysis software.

Compound	half-life [1] [h]	half-life [2] [h]	solubility [3] [µM]	half-life ([2]; unit min) [h]	half-life at 3 μM [1] [h]	half-life at 3 μM ([2]; read-out: T½ in human plasma) [h]	solubility at 90 min [3] [µM]
C=C(C)[C@@H]1CCC(C)=C[C@H]1c1c(O)cc(CCCCC)cc1OC(=O)C1(OP(=O)(O)OCc2ccccc2)CC1.N [compound 8, benzyl (1-((((1′R,2′R)-6-hydroxy-5′-methyl-4-pentyl-2′-(prop-1-en-2-yl)-1′,2′,3′,4′-tetrahydro-[1,1′-biphenyl]-2-yl)oxy)carbonyl)cyclopropyl) phosphate ammonium salt]	0.383	5.3	287 ± 13				
C=C(C)[C@@H]1CCC(C)=C[C@H]1c1c(O)cc(CCCCC)cc1OC(=O)NCCOP(=O)(O)O.N.N [38a, (1′R,2′R)-6-hydroxy-5′-methyl-4-pentyl-2′-(prop-1-en-2-yl)-1′,2′,3′,4′-tetrahydro-[1,1′-biphenyl]-2-yl(2-(phosphonooxy)ethyl)carbamate di-ammonium salt]	2.02	> 4	> 500				
C=C(C)[C@@H]1CCC(C)=C[C@H]1c1c(O)cc(CCCCC)cc1OC(=O)C1(OP(=O)(O)OC(C)C)CC1.N [14a, 1-((((1′R,2′R)-6-hydroxy-5′-methyl-4-pentyl-2′-(prop-1-en-2-yl)-1′,2′,3′,4′-tetrahydro-[1,1′-biphenyl]-2-yl)oxy)carbonyl)cyclopropyl isopropyl phosphate ammonium salt]	0.217	> 3	> 500				
C=C(C)[C@@H]1CCC(C)=C[C@H]1c1c(O)cc(CCCCC)cc1OC(=O)NCCCOP(=O)(O)O.N.N [38c, (1′R,2′R)-6-hydroxy-5′-methyl-4-pentyl-2′-(prop-1-en-2-yl)-1′,2′,3′,4′-tetrahydro-[1,1′-biphenyl]-2-yl (3-(phosphonooxy)propyl)carbamate di-ammonium salt]	1.22	> 4	> 500				
C=C(C)[C@@H]1CCC(C)=C[C@H]1c1c(O)cc(CCCCC)cc1OC(=O)C(C)(C)OP(=O)(O)O.N.N [7e, 1-(((1′R,2′R)-6-hydroxy-5′-methyl-4-pentyl-2′-(prop-1-en-2-yl)-1′,2′,3′,4′-tetrahydro-[1,1′-biphenyl]-2-yl)oxy)-2-methyl-1-oxopropan-2-yl phosphate di-ammonium salt]			> 500	0.4			
C=C(C)[C@@H]1CCC(C)=C[C@H]1c1c(O)cc(CCCCC)cc1OC(=O)C1(OP(=O)(O)OCCCCCCC)CC1.N [14e, heptyl (1-((((1′R,2′R)-6-hydroxy-5′-methyl-4-pentyl-2′-(prop-1-en-2-yl)-1′,2′,3′,4′-tetrahydro-[1,1′-biphenyl]-2-yl)oxy)carbonyl)cyclopropyl) phosphate ammonium salt]	0.75	> 4	57 ± 1.24				
C=C(C)[C@@H]1CCC(C)=C[C@H]1c1c(O)cc(CCCCC)cc1OC(=O)N(C)CCOP(=O)(O)O.N.N [38b, (1′R,2′R)-6-hydroxy-5′-methyl-4-pentyl-2′-(prop-1-en-2-yl)-1′,2′,3′,4′-tetrahydro-[1,1′-biphenyl]-2-yl methyl(2-(phosphonooxy)ethyl)carbamate di-ammonium salt]					3.83	> 4	> 500
C=C(C)[C@@H]1CCC(C)=C[C@H]1c1c(O)cc(CCCCC)cc1OC(=O)C1(OP(=O)(O)OCCOCCOC)CC1.N [14j, 1-((((1′R,2′R)-6-hydroxy-5′-methyl-4-pentyl-2′-(prop-1-en-2-yl)-1′,2′,3′,4′-tetrahydro-[1,1′-biphenyl]-2-yl)oxy)carbonyl)cyclopropyl (2-(2-methoxyethoxy)ethyl) phosphate ammonium salt]	0.4	> 4	> 500				
C=C(C)[C@@H]1CCC(C)=C[C@H]1c1c(O)cc(CCCCC)cc1OC(=O)C1CC(OP(=O)(O)O)C1.N.N (stereo partly drawn) [7c, 3-((((1′R,2′R)-6-hydroxy-5′-methyl-4-pentyl-2′-(prop-1-en-2-yl)-1′,2′,3′,4′-tetrahydro-[1,1′-biphenyl]-2-yl)oxy)carbonyl)cyclobutyl phosphate di-ammonium salt]	0.883	7.2	> 500				
C=C(C)[C@@H]1CCC(C)=C[C@H]1c1c(O)cc(CCCCC)cc1OC(=O)C1(OP(=O)(O)OCCCCCC)CC1.N [14d, hexyl (1-((((1′R,2′R)-6-hydroxy-5′-methyl-4-pentyl-2′-(prop-1-en-2-yl)-1′,2′,3′,4′-tetrahydro-[1,1′-biphenyl]-2-yl)oxy)carbonyl)cyclopropyl) phosphate ammonium salt]	0.533	> 4	98 ± 1.24				
C=C(C)[C@@H]1CCC(C)=C[C@H]1c1c(O)cc(CCCCC)cc1OC(=O)C1(OP(=O)(O)OCCOC)CC1.N [14i, 1-((((1′R,2′R)-6-hydroxy-5′-methyl-4-pentyl-2′-(prop-1-en-2-yl)-1′,2′,3′,4′-tetrahydro-[1,1′-biphenyl]-2-yl)oxy)carbonyl)cyclopropyl (2-methoxyethyl) phosphate ammonium salt]	0.317	> 4	> 500				
C=C(C)[C@@H]1CCC(C)=C[C@H]1c1c(O)cc(CCCCC)cc1OC(=O)OCCCCOP(=O)(O)O.N.N [29c, (1′R,2′R)-6-hydroxy-5′-methyl-4-pentyl-2′-(prop-1-en-2-yl)-1′,2′,3′,4′-tetrahydro-[1,1′-biphenyl]-2-yl(4-(phosphonooxy)butyl) carbonate di-ammonium salt]	0.417	> 4	> 500				
C=C(C)[C@@H]1CCC(C)=C[C@H]1c1c(O)cc(CCCCC)cc1OC(=O)OCOP(=O)(O)O.N.N [compound 24, (1′R,2′R)-6-hydroxy-5′-methyl-4-pentyl-2′-(prop-1-en-2-yl)-1′,2′,3′,4′-tetrahydro-[1,1′-biphenyl]-2-yl ((phosphonooxy)methyl) carbonate di-ammonium salt]		> 4	> 500				
